Measured values from patent publication US9796702B2, “Dihydroquinoline pyrazolyl compounds” (Hoffmann-La Roche Inc., priority 2015, dated 2017).

What was measured:
CYP11B2 [1] = target: T1, CYP11B2 (Homo sapiens (Human), UniProt P19099); experiment: G-402 cellular enzyme assay, human CYP11B2 (aldosterone release); type: cell-based; conditions: G-402 cells expressing human CYP11B2; 1 μM Deoxycorticosterone
Text: (§1) Herein we identified the use of the G-402 cell line as a host cell to ectopically express (transiently or stably) enzymes of the CYP11 family. Specifically we developed stable G-402 cells expressing ectopically human CYP11B1, human CYP11B2, human CYP11A1, cynmolgus CYP11B1 or cynomolgus CYP11B2 enzyme activity. Importantly the identified cell line G-402 expresses co-factors (adrenodoxin and adrenodoxin reductase) important for the activity of the CYP11 family and no relevant enzyme activity of the CYP11 family (in comparison to H295R cells) was detected in these cells. Therefore the G-402 cell line is uniquely suited as a host cell for the ectopic expression of enzymes from the CYP11 family.
(§2) G-402 cells can be obtained from ATCC (CRL-1440) and were originally derived from a renal leiomyoblastoma.
(§3) The expression plasmids contains the ORF for either human/cyno CYP11B1 or CYP11B2 under the control of a suitable promoter (CMV-promoter) and a suitable resistance marker (neomycin). Using standard techniques the expression plasmid is transfected into G-402 cells and these cells are then selected for expressing the given resistance markers. Individual cell-clones are then selected and assessed for displaying the desired enzymatic activity using 11-Deoxycorticosterone (Cyp11B2) or 11-Deoxycortisol (Cyp11B1) as a substrate.
(§4) G-402 cells expressing CYP11 constructs were established as described above and maintained in McCoy's 5a Medium Modified, ATCC Catalog No. 30-2007 containing 10% FCS and 400 μg/ml G418 (Geneticin) at 37° C. under an atmosphere of 5% CO2/95% air. Cellular enzyme assays were performed in DMEM/F12 medium containing 2.5% charcoal treated FCS and appropriate concentration of substrate (0.3-10 uM 11-Deoxycorticosterone, 11-Deoxycortisol or Corticosterone). For assaying enzymatic activity, cells were plated onto 96 well plates and incubated for 16 h. An aliquot of the supernatant is then transferred and analyzed for the concentration of the expected product (Aldosterone for CYP11B2; Cortisol for CYP11B1). The concentrations of these steroids can be determined using HTRF assays from CisBio analyzing either Aldosterone or Cortisol.
(§5) Inhibition of the release of produced steroids can be used as a measure of the respective enzyme inhibition by test compounds added during the cellular enzyme assay. The dose dependent inhibition of enzymatic activity by a compound is calculated by means of plotting added inhibitor concentrations (x-axes) vs. measured steroid/product level (y-axes). The inhibition is then calculated by fitting the following 4-parameter sigmoidal function (Morgan-Mercer-Flodin (MMF) model) to the raw data points using the least squares method:
(§6) [formula] wherein, A is the maximum y value, B is the EC50 factor determined using XLFit, C is the minimum y value and D is the slope value.
(§7) EC50 values for compounds claimed herein were tested with the G402-based assay system described. Cyp11B2 enzyme activity was tested in presence of 1 μM Deoxycorticosterone and variable amounts of inhibitors; Cyp11B1 enzyme activity was tested in presence of 1 μM Deoxycortisol and variable amounts of inhibitors.

human CYP11B1 = human CYP11B1 (Homo sapiens (Human), UniProt P15538); experiment: G-402 cellular enzyme assay, human CYP11B1 (cortisol release); type: cell-based; conditions: G-402 cells expressing human CYP11B1; 1 μM Deoxycortisol
Chain of human CYP11B1 (P15538 25-503): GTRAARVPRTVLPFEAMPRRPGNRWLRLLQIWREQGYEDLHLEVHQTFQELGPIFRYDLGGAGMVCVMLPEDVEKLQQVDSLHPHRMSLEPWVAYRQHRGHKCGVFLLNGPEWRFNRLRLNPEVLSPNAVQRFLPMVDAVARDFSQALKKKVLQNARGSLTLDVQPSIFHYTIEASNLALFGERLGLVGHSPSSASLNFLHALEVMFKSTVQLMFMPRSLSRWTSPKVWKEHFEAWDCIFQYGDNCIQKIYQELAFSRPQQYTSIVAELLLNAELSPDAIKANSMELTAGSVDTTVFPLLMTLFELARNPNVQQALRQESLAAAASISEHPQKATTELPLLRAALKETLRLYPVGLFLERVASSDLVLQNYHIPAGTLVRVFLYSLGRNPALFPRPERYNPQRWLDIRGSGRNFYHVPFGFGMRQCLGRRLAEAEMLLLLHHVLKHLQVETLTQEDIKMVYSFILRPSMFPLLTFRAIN
Text: as §1, §2, §3, §4, §5, §6, §7

[2] = cited from earlier work; for plasma aldosterone: FAD286: 4 weeks of treatment, spironolactone: 4 and 8 weeks of treatment; for cardiac and aortic medial hypertrophy / renal effects (albuminuria, azotemia, renovascular hypertrophy, glomerular injury, PAI-1 and osteopontin mRNA, tubulointerstitial fibrosis): angiotensin II and high salt treatment, rat; for angiotensin II and salt-stimulated PAI-1 mRNA expression: aorta and heart
[3] = rats with experimental heart failure; cited from earlier work
CYP11B2 [4] = target: T1, CYP11B2; conditions: patients with primary aldosteronism, cited from earlier work
CYP11B2 [5] = conditions: patients with primary aldosteronism; cited from earlier work

T1 sequence (P19099 25-503): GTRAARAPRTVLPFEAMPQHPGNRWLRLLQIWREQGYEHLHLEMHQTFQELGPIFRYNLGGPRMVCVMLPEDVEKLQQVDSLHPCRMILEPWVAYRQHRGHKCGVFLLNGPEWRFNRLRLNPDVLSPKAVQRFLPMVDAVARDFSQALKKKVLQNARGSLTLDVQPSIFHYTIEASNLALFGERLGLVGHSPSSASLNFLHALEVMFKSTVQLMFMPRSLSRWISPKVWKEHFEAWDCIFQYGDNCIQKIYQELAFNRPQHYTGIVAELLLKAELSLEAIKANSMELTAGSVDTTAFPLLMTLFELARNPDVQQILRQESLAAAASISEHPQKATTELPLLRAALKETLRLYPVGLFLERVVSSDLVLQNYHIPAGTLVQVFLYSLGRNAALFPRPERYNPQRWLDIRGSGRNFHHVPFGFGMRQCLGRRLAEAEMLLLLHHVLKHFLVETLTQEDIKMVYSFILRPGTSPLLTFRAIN

SMILES	EC50 (CYP11B2 [1])	EC50 (human CYP11B1)	further results
CC(=O)N1CCC(Cc2c[nH]nc2-c2ccc3c(c2)CCC(=O)N3C)CC1 [Example 16, 6-[4-[(1-Acetyl-4-piperidyl)methyl]-1H-pyrazol-3-yl]-1-methyl-3,4-dihydroquinolin-2-one]	0.0283 nM	0.266 nM	
CN1C(=O)CCc2cc(-c3n[nH]cc3CC3CCN(C(=O)c4cnn(C)c4)CC3)ccc21 [Example 17, 1-Methyl-6-[4-[[1-(1-methylpyrazole-4-carbonyl)-4-piperidyl]methyl]-1H-pyrazol-3-yl]-3,4-dihydroquinolin-2-one]		1.2 nM	
CCS(=O)(=O)N1CCC(Cc2c[nH]nc2-c2ccc3c(c2)CCC(=O)N3C)CC1 [Example 18, 6-[4-[(1-Ethylsulfonyl-4-piperidyl)methyl]-1H-pyrazol-3-yl]-1-methyl-3,4-dihydroquinolin-2-one]	0.0052 nM	0.216 nM	
CC(=O)N1CCC(Cc2c[nH]nc2-c2cc3c(cc2F)N(C)C(=O)CC3)CC1 [Example 19, 6-[4-[(1-Acetylpiperidin-4-yl)methyl]-1H-pyrazol-3-yl]-7-fluoro-1-methyl-3,4-dihydroquinolin-2-one]	0.0171 nM	0.416 nM	
CN1C(=O)CCc2c1ccc(-c1n[nH]cc1CC1CCN(C(=O)c3cnn(C)c3)CC1)c2F [Example 20, 5-Fluoro-1-methyl-6-[4-[[1-(1-methylpyrazole-4-carbonyl)piperidin-4-yl]methyl]-1H-pyrazol-3-yl]-3,4-dihydroquinolin-2-one]		0.723 nM	
CC(=O)N1CCC(Cc2c[nH]nc2-c2ccc3c(c2F)CCC(=O)N3C)CC1 [Example 21, 6-[4-[(1-Acetyl-4-piperidyl)methyl]-1H-pyrazol-3-yl]-5-fluoro-1-methyl-3,4-dihydroquinolin-2-one]	0.012 nM	0.447 nM	
CCS(=O)(=O)N1CCC(Cc2cn[nH]c2-c2ccc3c(c2F)CCC(=O)N3C)CC1 [Example 22, 6-[4-[(1-Ethylsulfonylpiperidin-4-yl)methyl]-1H-pyrazol-3-yl]-5-fluoro-1-methyl-3,4-dihydroquinolin-2-one]		0.133 nM	
CN1C(=O)CCc2c1ccc(-c1[nH]ncc1CC1CCN(C(=O)c3ncccc3Cl)CC1)c2Cl [Example 28, 5-Chloro-6-[4-[[1-(3-chloropyridine-2-carbonyl)-4-piperidyl]methyl]-1H-pyrazol-3-yl]-1-methyl-3,4-dihydroquinolin-2-one]	0.0276 nM	2.45 nM	
CN1C(=O)CCc2c1ccc(-c1[nH]ncc1CC1CCN(C(=O)c3ccnn3C)CC1)c2Cl [Example 29, 5-Chloro-1-methyl-6-[4-[[1-(2-methylpyrazole-3-carbonyl)-4-piperidyl]methyl]-1H-pyrazol-3-yl]-3,4-dihydroquinolin-2-one]	0.0164 nM	3.31 nM	
CN1C(=O)CCc2c1ccc(-c1[nH]ncc1CC1CCN(C(=O)c3ccncc3Cl)CC1)c2Cl [Example 30, 5-Chloro-6-[4-[[1-(3-chloropyridine-4-carbonyl)-4-piperidyl]methyl]-1H-pyrazol-3-yl]-1-methyl-3,4-dihydroquinolin-2-one]	0.0192 nM	2.47 nM	
CN1C(=O)CCc2cc(-c3[nH]ncc3CC3CCN(C(=O)c4cncn4C)CC3)ccc21 [Example 31, 1-Methyl-6-[4-[[1-(3-methylimidazole-4-carbonyl)-4-piperidyl]methyl]-1H-pyrazol-3-yl]-3,4-dihydroquinolin-2-one]	0.007 nM	1.12 nM	
CN1C(=O)CCc2cc(-c3[nH]ncc3CC3CCN(C(=O)c4nccn4C)CC3)ccc21 [Example 32, 1-Methyl-6-[4-[[1-(1-methylimidazole-2-carbonyl)-4-piperidyl]methyl]-1H-pyrazol-3-yl]-3,4-dihydroquinolin-2-one]	0.0294 nM	0.351 nM	
CN1C(=O)CCc2cc(-c3[nH]ncc3CC3CCN(C(=O)c4ncccc4Cl)CC3)ccc21 [Example 34, 6-[4-[[1-(3-Chloropyridine-2-carbonyl)-4-piperidyl]methyl]-1H-pyrazol-3-yl]-1-methyl-3,4-dihydroquinolin-2-one]	0.0145 nM	0.547 nM	
CCS(=O)(=O)N1CC2(CC(Cc3c[nH]nc3-c3ccc4c(c3Cl)CCC(=O)N4C)C2)C1 [Example 39, 5-Chloro-6-[4-[(2-ethylsulfonyl-2-azaspiro[3.3]heptan-6-yl)methyl]-1H-pyrazol-3-yl]-1-methyl-3,4-dihydroquinolin-2-one]	0.0059 nM	0.215 nM	
CC(=O)N1CC2(CC(Cc3c[nH]nc3-c3ccc4c(c3Cl)CCC(=O)N4C)C2)C1 [Example 40, 6-[4-[(2-Acetyl-2-azaspiro[3.3]heptan-6-yl)methyl]-1H-pyrazol-3-yl]-5-chloro-1-methyl-3,4-dihydroquinolin-2-one]	0.0495 nM	2.47 nM	
CN1C(=O)CCc2c1ccc(-c1n[nH]cc1CC1CC3(C1)CN(C(=O)c1cnn(C)c1)C3)c2Cl [Example 41, 5-Chloro-1-methyl-6-[4-[[2-(1-methylpyrazole-4-carbonyl)-2-azaspiro[3.3]heptan-6-yl]methyl]-1H-pyrazol-3-yl]-3,4-dihydroquinolin-2-one]	0.0377 nM	7.29 nM	
N#Cc1ccc(C2CCCc3cncn32)cc1 (stereo not shown) [FAD286]			plasma aldosterone [2]: reduced; cardiac and aortic medial hypertrophy [2]: attenuated; renal effects (albuminuria, azotemia, renovascular hypertrophy, glomerular injury, PAI-1 and osteopontin mRNA, tubulointerstitial fibrosis) [2]: prevented these renal effects; angiotensin II and salt-stimulated PAI-1 mRNA expression [2]: not; blood pressure and cardiovascular function and structure [3]: improved; kidney function and morphology [3]: improve
N#Cc1ccc([C@H]2CCc3cncn32)c(F)c1 [LCI699]			circulating aldosterone levels (CYP11B2 [4]; oral): significantly lower; blood pressure (CYP11B2 [4]): mildly decreased; hypokalemia (CYP11B2 [4]): corrected; selectivity (effects on the glucocorticoid axis, cortisol synthesis) (CYP11B2 [5]): poor selectivity
CC(=O)S[C@@H]1CC2=CC(=O)CC[C@]2(C)[C@H]2CC[C@@]3(C)[C@@H](CC[C@@]34CCC(=O)O4)[C@H]12 [spironolactone]			plasma aldosterone [2]: increased; cardiac and aortic medial hypertrophy [2]: attenuated; renal effects (albuminuria, azotemia, renovascular hypertrophy, glomerular injury, PAI-1 and osteopontin mRNA, tubulointerstitial fibrosis) [2]: prevented these renal effects; angiotensin II and salt-stimulated PAI-1 mRNA expression [2]: enhanced
